{"source": "patent EP1124847B1", "about": "“LHRH ANALOGUES FOR THE TREATMENT OF OSTEOPOROSIS” (Ferring B.V., priority 1998, dated 2004)", "experiment": "Serum calcium in the ovariectomised rat (colorimetric assay, day 28)", "assay_type": "in vivo, Sprague Dawley rats", "conditions": "ovariectomised rats, 80µg/kg daily for 28days", "protocol": "• (a) Female adult (8 weeks old, 200-215g) Sprague Dawley rats were bilaterally ovariectomised (OVX). Animals were kept for 4 weeks […] before commencing treatment. -Purina rat chow (1.00% calcium, 0.61% phosphorous) and water were provided ad libitum. Each study consisted of 6 weight-matched groups (n = 8/group). • (b) Treatment started 4 weeks post-OVX. After 4 weeks, a baseline control OVX group was sacrificed (Group A). The remaining groups were injected once a day with vehicle (Group B), 1µg/kg body weight (Group C), 10µg/kg body weight (Group D), 100µg/kg body weight (Group E) of GnRH-II, and 80µg/kg body weight (Group F) of hPTH(1-34). • (c) All rats were weighed every fourth day and dosages adjusted for 50g increase in mean group weight. Rats were given alternate subcutaneous injections ofcalcein (30mg/kg) or tetracyclin (30mg/kg) in 2% sodium bicarbonate-saline, respectively to label mineralization surfaces on days 10, 19 and 26, following treatment with drug. Bone mineral density was assessed by dual energy x-ray absorptometry-DEXA). On day 28 serum calcium levels were determined by colorimetric assay using a commercial kit. • (d) Success of OVX was confirmed at necropsy by failure to detect ovarian tissue and by observation of marked atrophy of the uterine horns. Both legs were disarticulated at the hip. […]", "data": [{"substance": "PTH: Parathyroid hormone, hPTH(1-34), 80µg/kg comparison group (Group F) (SVSEIQLMHNLGKHLNSMERVEWLRKKLQDVHNF; Parathyroid hormone; UniProt P01270 32-65, looked up, fragment)", "values": [{"measurement": "serum calcium", "value": "pronounced hypercalcemia"}]}]}
